One test relates to HEK293. The experiment in a line: Cytotoxicity against HEK293 cells after 48 hrs by MTT assay. It is filed as cell-based. The conditions noted are these: Homo sapiens, HEK293, 48 h.
The test system of another test is A549. The experiment in a line: Cytotoxicity against human A549 cells after 48 hrs by MTT assay. The conditions noted are these: A549, 48 h. The class given is functional, cell-based.
Test [1] is described as follows: Cytotoxicity against human DU145 cells after 48 hrs by MTT assay. The conditions noted are these: DU-145, 48 h. It is filed as functional, cell-based.
A further test relates to HeLa. The experiment in a line: Cytotoxicity against human HeLa cells after 48 hrs by MTT assay. The class given is functional, cell-based.
In test [2] the test system is MCF7. The test can be described thus: Cytotoxicity against human MCF7 cells after 48 hrs by MTT assay. The class given is functional, cell-based. The conditions noted are these: MCF7, 48 h.
For test [3], the system named is MCF7. The experiment in a line: Induction of cell cycle arrest in human MCF7 cells assessed as accumulation at sub G1 phase at 2.5 uM after 48 hrs by propidium iodide staining based flow cytometric analysis (reference value: 2.58 %). It is filed as functional.
Test [4] relates to MCF7. The experiment in a line: Induction of cell cycle arrest in human MCF7 cells assessed as accumulation at sub G1 phase at 5 uM after 48 hrs by propidium iodide staining based flow cytometric analysis (reference value: 2.58 %). It is filed as functional.
Test [5] has as its system MCF7. The test can be described thus: Induction of cell cycle arrest in human MCF7 cells assessed as accumulation at G0/G1 phase at 2.5 uM after 48 hrs by propidium iodide staining based flow cytometric analysis (reference value: 62.95 %). The class given is functional.
Test [6] concerns MCF7. The test can be described thus: Induction of cell cycle arrest in human MCF7 cells assessed as accumulation at G0/G1 phase at 5 uM after 48 hrs by propidium iodide staining based flow cytometric analysis (reference value: 62.95 %). It is filed as functional.
For test [7], the system named is MCF7. The test can be described thus: Induction of cell cycle arrest in human MCF7 cells assessed as accumulation at S phase at 2.5 uM after 48 hrs by propidium iodide staining based flow cytometric analysis (reference value: 5.04 %). It is filed as functional.
The subject of test [8] is MCF7. The experiment in a line: Induction of cell cycle arrest in human MCF7 cells assessed as accumulation at S phase at 5 uM after 48 hrs by propidium iodide staining based flow cytometric analysis (reference value: 5.04 %). It is filed as functional.
For test [9], the system named is MCF7. The experiment in a line: Induction of cell cycle arrest in human MCF7 cells assessed as accumulation at G2/M phase at 2.5 uM after 48 hrs by propidium iodide staining based flow cytometric analysis (reference value: 28.45 %). The class given is functional.
In test [10] the test system is MCF7. The experiment in a line: Induction of cell cycle arrest in human MCF7 cells assessed as accumulation at G2/M phase at 5 uM after 48 hrs by propidium iodide staining based flow cytometric analysis (reference value: 28.45 %). It is filed as functional.

Each structure is given as a SMILES string.

The text below walks through data of ChEMBL document CHEMBL3784996, “Copper-catalyzed three-component synthesis of aminonaphthoquinone-sulfonylamidine conjugates and in vitro evaluation of their antiproliferative activity” (Bioorg Med Chem Lett, 2016).

Consider `C#CCNC1=CC(=O)c2ccccc2C1=O`, for which the IC50 in the test on HEK293 came out at 77.6 µM; in the test on A549, 47.3 µM; in test [1], 39.8 µM; in the test with HeLa, 30.9 µM; in the test with MCF7 [2] it was 24.1 µM.
`Cc1ccc(S(=O)(=O)/N=C(/CCNC2=CC(=O)c3ccccc3C2=O)Nc2cc(F)c(F)c(F)c2)cc1`: the IC50 was 82.6 µM with HEK293; 10.2 µM in the test on A549; 12.6 µM in test [1]; 8.58 µM in the test with HeLa; 6.61 µM in the test on MCF7 [2].
The corresponding values for `Cc1ccc(S(=O)(=O)/N=C(/CCNC2=CC(=O)c3ccccc3C2=O)Nc2ccc(F)c(F)c2)cc1` are 55.2 µM, 16.7 µM, 12.9 µM, 8.79 µM and 9.42 µM.
In the case of `Cc1ccc(S(=O)(=O)/N=C(/CCNC2=CC(=O)c3ccccc3C2=O)Nc2ccccc2[N+](=O)[O-])cc1`, the Activity in the test with MCF7 [3] is reported as 2.5%; in the test on MCF7 [4] it was 2.6%; in the test with MCF7 [5], 63.91%; with MCF7 [6] it was 68.18%; in the test on MCF7 [7], 3.11%; with MCF7 [8], 3.09%. Besides, the Activity in the test on MCF7 [9] was 27.47%; in the test with MCF7 [10], 23.6%. In addition, the IC50 in the test on HEK293 was determined as 69.6 µM; in the test with A549, 5.01 µM; in test [1], 7.59 µM; with HeLa it was 3.31 µM; in the test with MCF7 [2], 3.09 µM.
`Cc1ccc(S(=O)(=O)/N=C(/CCNC2=CC(=O)c3ccccc3C2=O)Nc2ccccc2I)cc1`: the IC50 came to 49.4 µM in the test with HEK293; 24.7 µM with A549; 11.7 µM in test [1]; 19.1 µM with HeLa; 15.5 µM in the test with MCF7 [2].
The matching figures for `COc1ccc(N/C(CCNC2=CC(=O)C(C)=C(C)C2=O)=N\S(=O)(=O)c2ccc(C)cc2)cc1OC`: 79.4 µM, 15.5 µM, 14 µM, 10.5 µM and 8.71 µM.
As for `Cc1ccc(S(=O)(=O)/N=C(\N)CCNC2=CC(=O)c3ccccc3C2=O)cc1`, the IC50 stood at 63.1 µM in the test with HEK293; 26.6 µM in the test on A549; 30.9 µM in [1]; 24.6 µM in the test on HeLa; 18.6 µM in the test with MCF7 [2].
The matching figures for `Cc1ccc(S(=O)(=O)/N=C(/CCNC2=CC(=O)c3ccccc3C2=O)Nc2ccc(F)cc2)cc1`: 55.1 µM, 9.33 µM, 12.2 µM, 5.89 µM and 4.26 µM.
Regarding `COc1ccc(N/C(CCNC2=CC(=O)c3ccccc3C2=O)=N\S(=O)(=O)c2ccc(C)cc2)cc1`, the IC50 in the test on HEK293 amounted to 35.1 µM; in the test with A549 it was 25.5 µM; in test [1], 12 µM; in the test on HeLa it was 7.59 µM; with MCF7 [2], 6.03 µM.
Turning to `Cc1ccc(S(=O)(=O)/N=C(/CCNC2=CC(=O)c3ccccc3C2=O)Nc2cccc(C(F)(F)F)c2)cc1`, the IC50 in the test with HEK293 was found to be 91.5 µM; with A549, 78.5 µM; in test [1], 84.1 µM; with HeLa, 77.6 µM; in the test on MCF7 [2], 89.1 µM.
The corresponding values for `Cc1ccc(S(=O)(=O)/N=C(/CCNC2=CC(=O)c3ccccc3C2=O)Nc2ccc(Cl)cc2Cl)cc1` are 41.9 µM, 32.9 µM, 18.6 µM, 20.5 µM and 17 µM.
For `COc1ccc(N/C(CCNC2=C(Br)C(=O)c3ccccc3C2=O)=N\S(=O)(=O)c2ccc(C)cc2)cc1OC`, the IC50 in the test on HEK293 was 35.3 µM; with A549, 17.5 µM; in test [1], 29.6 µM; with HeLa it was 5.37 µM; in the test with MCF7 [2], 6.61 µM.
The matching figures for `Cc1ccc(S(=O)(=O)/N=C(/CCNC2=CC(=O)c3ccccc3C2=O)NCCc2c[nH]c3ccccc23)cc1`: 42.5 µM, 17 µM, 28.4 µM, 9.33 µM and 7.76 µM.
For `Cc1ccc(S(=O)(=O)/N=C(/CCNC2=CC(=O)c3ccccc3C2=O)NC2CCCCC2)cc1`, the IC50 turned out to be 50.1 µM with HEK293; 14.7 µM with A549; 16.6 µM in test [1]; 9.77 µM in the test with HeLa; 7.58 µM with MCF7 [2].
The matching figures for `COc1ccc(N/C(CCNC2=CC(=O)c3ccccc3C2=O)=N\S(=O)(=O)c2ccc(C(C)(C)C)cc2)cc1OC`: 62.3 µM, 16.2 µM, 14.5 µM, 11.5 µM and 8.71 µM.
Turning to `COc1cc(N/C(CCNC2=CC(=O)c3ccccc3C2=O)=N\S(=O)(=O)c2ccc(C)cc2)cc(OC)c1OC`, the Activity with MCF7 [3] stood at 1.86%; with MCF7 [4] it was 3.01%; in the test with MCF7 [5] it was 64.17%; with MCF7 [6] it was 84.55%; in the test on MCF7 [7], 4.14%; with MCF7 [8], 5.19%. The Activity with MCF7 [9] worked out at 27.51%; with MCF7 [10] it was 5.23%. The IC50 with HEK293 came out at 75.8 µM; in the test on A549, 7.94 µM; in [1] it was 9.33 µM; in the test on HeLa it was 3.39 µM; in the test with MCF7 [2], 3.05 µM.
Take `Cc1ccc(S(=O)(=O)/N=C(/CCNC2=CC(=O)c3ccccc3C2=O)Nc2ccc(Cl)cc2)cc1`: the IC50 is 65.4 µM with HEK293; 29.9 µM in the test on A549; 32.4 µM in test [1]; 13.4 µM in the test on HeLa; 7.08 µM in the test with MCF7 [2].
The matching figures for `Cc1ccc(S(=O)(=O)/N=C(/CCNC2=CC(=O)c3ccccc3C2=O)NCc2ccccc2)cc1`: 80.2 µM, 7.41 µM, 9.12 µM, 3.98 µM and 3.63 µM.
The matching figures for `Cc1ccc(S(=O)(=O)/N=C(/CCNC2=CC(=O)c3ccccc3C2=O)Nc2cccc(C)c2)cc1`: 56.2 µM, 18.7 µM, 10.2 µM, 9.06 µM and 8.12 µM.
The corresponding values for `COc1ccc(N/C(CCNC2=CC(=O)c3ccccc3C2=O)=N\S(=O)(=O)c2ccc(C)cc2)c(OC)c1` are 83 µM, 126 µM, 67.2 µM, 67.6 µM and 30.2 µM.
Turning to `Cc1ccc(S(=O)(=O)/N=C(/CCNC2=CC(=O)c3ccccc3C2=O)NC(C)C)cc1`, the IC50 amounted to 71.6 µM in the test with HEK293; 44.3 µM with A549; 28.5 µM in [1]; 30.2 µM in the test with HeLa; 16.5 µM in the test on MCF7 [2].
The corresponding values for `COc1ccc(N/C(CCNC2=CC(=O)c3ccccc3C2=O)=N\S(=O)(=O)c2ccc(C)cc2)cc1OC` are 60.6 µM, 20.4 µM, 17.8 µM, 14.5 µM and 12.3 µM.
Take `COc1cccc2c1C(=O)c1c(O)c3c(c(O)c1C2=O)C[C@@](O)(C(=O)CO)C[C@@H]3O[C@H]1C[C@H](N)[C@H](O)[C@H](C)O1` [DOXORUBICIN]: the IC50 came to 2.34 µM in the test with A549, 1.08 µM in test [1] and 1.59 µM in the test on HeLa.
